Reference: the NIST ThermoML archive (doi:10.1021/je500696p)

Assays:
[1] = excess molar enthalpy (molar enthalpy of mixing); xn = mol fraction of the nth substance listed; conditions: 308.15 K, 100 kPa, Liquid, Calvet calorimetry
[2] = xn = mol fraction of the nth substance listed; conditions: 100 kPa, Liquid, Vibrating tube method, x1 = 1

CCCC[N+](C)(C)C.O=S(=O)([N-]S(=O)(=O)C(F)(F)F)C(F)(F)F [butyltrimethylammonium bis(trifluoromethylsulfonyl)imide] + C[S+](C)[O-]
[1]
Conditions | excess molar enthalpy [kcal/mol]
x2 = 0.1288 | -0.027
x2 = 0.2255 | -0.0416
x2 = 0.2609 | -0.0459
x2 = 0.3095 | -0.0511
x2 = 0.3626 | -0.0593
x2 = 0.4382 | -0.0629
x2 = 0.4941 | -0.0667
x2 = 0.4983 | -0.0638
x2 = 0.5007 | -0.0643
x2 = 0.559 | -0.0684
x2 = 0.5642 | -0.0679
x2 = 0.5646 | -0.0691
x2 = 0.6132 | -0.0629
x2 = 0.6267 | -0.0619
x2 = 0.7533 | -0.0399
x2 = 0.7693 | -0.037
x2 = 0.8684 | -0.0155

CCO [ethanol] + CCCC[N+](C)(C)C.O=S(=O)([N-]S(=O)(=O)C(F)(F)F)C(F)(F)F
[2]
Conditions | mass density [kg/m3]
293.15 K | 789.6
295.15 K | 787.9
298.15 K | 785.3
303.15 K | 781
308.15 K | 776.7
313.15 K | 772.3
318.15 K | 767.9
323.15 K | 763.5
328.15 K | 758.9
333.15 K | 754.4

CCCO [propan-1-ol] + CCCC[N+](C)(C)C.O=S(=O)([N-]S(=O)(=O)C(F)(F)F)C(F)(F)F
[2]
Conditions | mass density [kg/m3]
293.15 K | 803.6
295.15 K | 802.1
298.15 K | 799.7
303.15 K | 795.6
308.15 K | 791.6
313.15 K | 787.5
318.15 K | 783.4
323.15 K | 779.2
328.15 K | 774.9
333.15 K | 770.6

CN(C)C=O [dimethylformamide] + CCCC[N+](C)(C)C.O=S(=O)([N-]S(=O)(=O)C(F)(F)F)C(F)(F)F
[2]
Conditions | mass density [kg/m3]
293.15 K | 948.7
295.15 K | 946.8
298.15 K | 943.9
303.15 K | 939.1
308.15 K | 934.4
313.15 K | 929.6
318.15 K | 924.8
323.15 K | 920
328.15 K | 915.2
333.15 K | 910.4
